From patent publication US20220040160A1, “COMBINATION OF HISTONE DEACETYLASE INHIBITOR AND IMMUNOTHERAPY” (The United States of America,as represented by the …, priority 2016, published 2022)

Experiments:
[1] = tested on: LNCaP prostate carcinoma cells; test: Antigen-specific CTL lysis, overnight 111In-release assay; assay type: cell-based, human; conditions: E:T=30:1
Experimental: (§1) Vorinostat and entinostat were obtained from Selleck Chemicals. Adherent tumor cells in log-growth phase were exposed daily to vehicle (DMSO) or vorinostat at the indicated concentrations for 5 h, over 4 consecutive days. At the end of each treatment, cells were washed in fresh medium and returned to incubation at 37° C. with 5% CO2. Alternatively, cells were continuously exposed to vehicle (DMSO) or entinostat at the indicated concentrations for 72 h.
(§2) Carcinoembryonic antigen (CEA)-specific CTLs recognize the CEA peptide epitope […] (CAP-1) (SEQ ID NO: 1) (Tsang et al., J. Natl. Cancer Inst., 87(13): 982-990 (1995)). Prostate-specific antigen (PSA)-specific CTLs recognize the PSA peptide epitope […] (SEQ ID NO: 2) (Correale et al., J. Natl. Cancer Inst., 89(4): 293-300 (1997)). The mucin-1 (MUC-1)-specific CD8^+ CTL line, designated MUC-1 CTL, recognizes the MUC-1 peptide epitope […] (SEQ ID NO: 3) (Tsang et al., Clin. Cancer Res., 10(6): 2139-2149 (2004)). Brachyury-specific CTLs recognize the brachyury peptide epitope […] (T-p2) (SEQ ID NO: 4) (Tucker et al., Cancer Immunol. Immunother., 63(12): 1307-1317 (2014)). All T-cell lines were HLA-A2-restricted.
Carcinoma cells exposed to vorinostat, entinostat, or vehicle (DMSO) were labeled with ^111In prior to being used as targets for direct lysis by effector CTLs at an effector-to-target ratio of 30:1 in a standard overnight cytotoxicity ^111In-release assay (Gameiro et al., Oncoimmunology, 3: e28643 (2014)).
The effect of clinically relevant vorinostat exposure on prostate and breast carcinoma cells' sensitivity to antigen-specific CTL-mediated lysis was examined. LNCaP and MDA-MB-231 were exposed to vorinostat or to vehicle as before, prior to being used as targets for antigen-specific CTL lysis, using CEA-, brachyury-, MUC-1-, or PSA-specific CD8^+ T cells as effector cells.

[2] = tested on: ER stress response element (ERSE); test: Luciferase ER stress reporter assay in LNCaP clones; assay type: cell-based, human; conditions: designated concentrations
Experimental: as §1

[3] = tested on: prostate and breast carcinoma cells; test: NK cell mediated lysis of carcinoma cells; assay type: cell-based, human; conditions: after clinically relevant exposure
Experimental: Human prostate (LNCaP), breast (MDA-MB-231), and lung (H460) carcinoma cells were exposed to vorinostat or vehicle (DMSO) and the percent lysis was determined. At the end of treatment, the cells were used as targets in a lysis assay wherein NK cells isolated from human PBMCs were used as effectors (varying E:T ratios as indicated in FIG. 7).

[4] = tested on: non-small cell lung cancer (NSCLC); conditions: entinostat given with the DNMT inhibitor azacitidine; subsequent therapies given immediately after epigenetic therapy; cited from earlier work
[5] = tested on: HDAC enzymes (isoforms 1-11); test: HDAC activity assay (EpiQuik colorimetric kit) on nuclear extracts of treated carcinoma cells; assay type: cell-based, human; conditions: 1 or 3 μM, 5 h daily over 4 days, at 96 h, vs DMSO
Experimental: (§3) Vorinostat and entinostat were obtained from Selleck Chemicals.
Changes in the nuclear enzyme activity of HDAC isoforms 1-11 following vorinostat treatment of MDA-MB-231 and LNCaP cells were determined using the colorimetric EpiQuik HDAC Activity/Inhibition Assay Kit (Epigentek). Briefly, 10 μg of extracted nuclear HDAC proteins were incubated with acetylated HDAC substrate for 90 min at 37° C. HDAC deacetylated products were detected following sequential incubation with capture and detection antibodies, according to the manufacturer's specifications.
(§4) Therefore, the in vitro effect of clinically relevant exposure of human prostate (LNCaP) and breast (MDA-MB-231) carcinoma cells to vorinostat on the activity of HDAC enzymes (isoforms 1-11), cellular proliferation, and viability was examined. Tumor cells were exposed daily for 5 h to 1 μM or 3 μM vorinostat, or vehicle (DMSO) over 4 consecutive days, mimicking the range of vorinostat exposure (Cmax, AUC) attained in cancer patients after oral once daily intake of 400 mg (Iwamoto et al., Cancer Chemother. Pharmacol., 72(3): 493-508 (2013)). […] Vorinostat concentration of 3 μM was used for all subsequent experiments.

[6] = tested on: LNCaP prostate carcinoma cells; test: Cell growth and viability, trypan blue count / Live-Dead flow cytometry; assay type: cell-based; conditions: 1 or 3 μM, 5 h daily over 4 days
Experimental: as §1
(§5) Tumor cells were exposed to DMSO or vorinostat as described above. Cells were harvested daily and viable cells were counted by trypan blue exclusion using a Cellometer Auto T4 automated cell counter (Nexcelom Bioscience). Cellular viability was confirmed by flow cytometry using Live/Dead exclusion, according to manufacturer's instructions (Invitrogen).
as §4

[7] = tested on: MDA-MB-231 breast carcinoma cells; test: as above; assay type: cell-based; conditions: 1 or 3 μM, 5 h daily over 4 days
Experimental: as §1, §5, §4

[8] = tested on: MDA-MB-231 breast carcinoma cells; conditions: brachyury-specific CTL, 3 μM
Experimental: as §1
as §2, with “(T-p2) (SEQ ID NO: 4) (Tucker et al., Cancer Immunol. Immunother., 63(12): 1307-1317 (2014)). All T-cell lines were HLA-A2-restricted.” left out
Silencer® siRNA and negative control siRNA were used to silence HDAC1, ERN1, and PERK in MDA-MB-231 carcinoma cells, according to the manufacturer's instructions (Life Technologies). […] Detection and quantification of band intensity were performed with the Odyssey Infrared Imaging System (LI-COR Biotechnology). […]

[9] = tested on: HLA-A2 negative AsPC-1 pancreatic carcinoma cells; test: Antigen-specific CTL lysis, HLA-restriction control; assay type: cell-based, human; conditions: cells exposed to vehicle or vorinostat 3 μM
Experimental: as §1
as §2, with “HLA-A2-restricted. […]” for “HLA-A2-restricted.”

[10] = tested on: antigen processing machinery (APM) components; test: Flow cytometry of APM components and surface markers in MDA-MB-231 cells; assay type: cell-based, human
Experimental: as §3
Cell-surface and intracytoplasmic staining was performed as previously described (Ogino et al., J. Immunol. Methods, 278(1-2): 33-44 (2003)). Surface staining of tumor cells was performed using the primary labeled monoclonal antibodies HLA-A2-FITC, ICAM-1 (CD54)-PE, CEA (CD66)-FITC, MUC-1 (CD227)-FITC, and the appropriate isotype-matched controls (BD Biosciences). For intracellular analysis of antigen processing machinery (APM) components, mouse IgG1 (MK2-23) isotype control, LMP2 (SY-1)-, LMP7 (HB2)-, TAP-1 (NOB1)-, calnexin (TO-5)-, β2-microglobulin (L368), and tapasin (TO-3)-specific monoclonal antibodies were developed and characterized as described (Bandoh et al., Tissue Antigens, 66(3): 185-194 (2005); Ogino et al., Tissue Antigens, 62(5): 385-393 (2003); and Wang et al., J. Immunol. Methods, 299(1-2): 139-151 (2005)). Cellular fluorescence of 3×10^4 cells was examined on a FACSCalibur flow cytometer using CellQuest software (BD Biosciences).
CTL killing of tumor targets requires T-cell recognition of specific major histocompatibility complex (MHC) Class I/CD8^+ restricted epitope complexes on the surface of tumor cells, an event determined by the cooperative interactions of multiple APM components. […] To test this hypothesis, MDA-MB-231 carcinoma cells were exposed to vorinostat or to vehicle as before. At the end of treatment, cells were examined by flow cytometry for intracellular expression of 6 APM components (FIG. 3).

[11] = tested on: H460 lung carcinoma cells; test: Avelumab (anti-PD-L1) mediated ADCC with NK effectors; assay type: cell-based, human; conditions: 3 μM, 5 h daily, 4 days, anti-PD-L1 vs isotype control
Experimental: Lung (H460) and pancreatic (AsPC-1) carcinoma cells were exposed daily for 5 h to vorinostat (3 uM, black circles and bars) or DMSO (open circles and bars) for 4 consecutive days prior to being used as targets PDL-1-mediated ADCC. Upper panel: cell-surface expression of PDL1 in carcinoma targets. Middle panel: NK lysis in the presence of anti-PDL1 or isotype control Ab. Lower panel: H460 lysis in the presence of anti-PDL1 or isotype control antibodies using NK effector cells pre-incubated with anti-CD16 mAb. Results are presented as mean±S.E.M. from 3 replicate wells and are representative of 2-4 independent experiments. Asterisks denote statistical significance relative to controls (2-way ANOVA).
Human lung (H460) carcinoma cells were exposed to vorinostat and isotype control, anti-CD16, or anti-PD-L1 (avelumab).

[12] = MDA-MB-231, 3 μM, 96 h, intracellular flow cytometry

## Nc1ccccc1NC(=O)c1ccc(CNC(=O)OCc2cccnc2)cc1 [entinostat]
[1]; entinostat 500 nM, similar to vorinostat 3 μM, P<0.05
  sensitivity to CTL-mediated killing (PSA-specific CTL): increased sensitivity
[2]; entinostat continuous exposure 72 h
  activation of ERSE (firefly/renilla luciferase ratio normalized to DMSO): activated ERSE in an exposure-dependent manner
[3]
  sensitivity to NK cell mediated lysis in vitro: more sensitive
[4]
  patients with major objective responses to subsequent anticancer therapies: 4 out of 19

## O=C(CCCCCCC(=O)Nc1ccccc1)NO [vorinostat]
[5]; LNCaP prostate carcinoma cells, P=0.0006
  HDAC activity: significantly decreased
[5]; MDA-MB-231 breast carcinoma cells, P=0.0046
  HDAC activity: significantly decreased
[6]; at 96 h
  cellular viability: no significant effect
[6]; vs vehicle, P<0.0001
  cellular proliferation: significantly decreased
[7]; at 96 h
  cellular viability: no significant effect
[7]; vs vehicle, P<0.0001
  cellular proliferation: significantly decreased
[1]; 3 μM, 5 h daily, 4 days, P<0.0001
  sensitivity to CTL-mediated lysis targeting MUC-1: significantly more sensitive
[1]; 3 μM, 5 h daily, 4 days, P=0.0004
  sensitivity to CTL-mediated lysis targeting brachyury: significantly more sensitive
[1]; 3 μM, 5 h daily, 4 days, P=0.0011
  sensitivity to CTL-mediated lysis targeting PSA: significantly more sensitive
[1]; 3 μM, 5 h daily, 4 days, P=0.002
  sensitivity to CTL-mediated lysis targeting CEA: significantly more sensitive
[8]; HDAC1-silenced cells
  CTL lysis relative to vehicle control: did not further increase
[8]; control siRNA, E:T 30:1, P=0.0024
  increase in CTL sensitivity relative to vehicle controls: 2 fold
[9]
  CTL lysis of HLA-A2 negative targets: absence of significant lysis
[10]; [12]
  increase in Tapasin expression: 22%
  increase in expression of LMP2: ≥ 25%
  increase in expression of LMP7: ≥ 25%
  increase in expression of TAP1: ≥ 25%
  increase in expression of calnexin: ≥ 25%
  increase in expression of β2-microglobulin: ≥ 25%
[10]; upon exposure to vorinostat
  expression of CEA on the surface of tumor cells: Increased expression
  expression of HLA class I antigens on the surface of tumor cells: Increased expression
  expression of ICAM-1 on the surface of tumor cells: Increased expression
  expression of MUC-1 on the surface of tumor cells: Increased expression
[2]; vorinostat 5 h daily for 4 days
  activation of ERSE (firefly/renilla luciferase ratio normalized to DMSO): activated ERSE in a dose-dependent manner
[3]
  sensitivity to NK cell mediated lysis in vitro: more sensitive
[11]
  avelumab-mediated ADCC: increases
